Experiments:
Type in all cases: in vivo
[1] = test system: Russian thistle (Salsola iberica); experiment: Test B pre-/postemergence plant response; details: Preemergence
Summary of the method: (§1)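 Visual scoring from 0 (no effect) to 100 (complete control) against untreated controls was done 13 to 15 days after greenhouse treatment. Chemicals were formulated in a surfactant-containing non-phytotoxic solvent and applied to soil preemergence or to 1- to 4-leaf (2-18 cm) plants postemergence.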

[2] = test system: common (oilseed) sunflower (Helianthus annuus); experiment: Test B pre-/postemergence plant response; details: Preemergence
Summary of the method: as §1

[3] = test system: downy bromegrass (Bromus tectorum); experiment: Test B pre-/postemergence plant response; details: for Bromegrass, Downy plant response rating: 8 g ai/ha
Summary of the method: as §1

[4] = test system: eastern black (E.B.) nightshade (Solanum ptycanthum); experiment: Test B pre-/postemergence plant response; details: Preemergence
Summary of the method: as §1

[5] = test system: giant foxtail (Setaria faberii); experiment: Test B pre-/postemergence plant response
Summary of the method: as §1

[6] = test system: goosegrass (Eleusine indica); experiment: Test B pre-/postemergence plant response
Summary of the method: as §1

[7] = test system: morningglory (Ipomoea coccinea); experiment: Test B pre-/postemergence plant response
Summary of the method: as §1

[8] = test system: soybean (Glycine max); experiment: Test B pre-/postemergence plant response
Summary of the method: as §1

[9] = test system: surinam grass (Brachiaria decumbens); experiment: Test B pre-/postemergence plant response
Summary of the method: as §1

[10] = test system: wheat (Triticum aestivum); experiment: Test B pre-/postemergence plant response
Summary of the method: as §1

[11] = test system: barnyardgrass (Echinochloa crus-galli); experiment: Test B flooded paddy test plant response; details: Flood (flooded paddy test), scale 0 to 100, 0 no effect, 100 complete control
Summary of the method: (§2)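 2-leaf plants; pots flooded 3 cm above soil; compound added to paddy water; depth maintained. Greenhouse 13–15 d. Visual rating vs controls, 0 (no effect) to 100 (complete control); dash = no result.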

[12] = test system: ducksalad (Heteranthera limosa); experiment: Test B flooded paddy test plant response; details: Flood (flooded paddy test), scale 0 to 100, 0 no effect, 100 complete control
Summary of the method: as §2

[13] = test system: rice (Oryza sativa); experiment: Test B flooded paddy test plant response; details: Flood (flooded paddy test), scale 0 to 100, 0 no effect, 100 complete control
Summary of the method: as §2

[14] = test system: umbrella sedge (Cyperus difformis); experiment: Test B flooded paddy test plant response; details: Flood (flooded paddy test), scale 0 to 100, 0 no effect, 100 complete control
Summary of the method: as §2

[15] = 31 g ai/ha, scale 0 to 100 (0 no effect, 100 complete control)
[16] = Postemergence, 16 g ai/ha, scale 0 to 100
[17] = Postemergence, 31 g ai/ha, scale 0 to 100
[18] = Postemergence, 62 g ai/ha, scale 0 to 100, 0 no effect, 100 complete control
[19] = Preemergence, 31 g ai/ha, 0 to 100 scale, 0 no effect, 100 complete control
[20] = Preemergence, 62 g ai/ha, scale 0 to 100
[21] = 8 g ai/ha, postemergence, 0-100 scale
[22] = Preemergence, 8 g ai/ha, scale 0 to 100
[23] = Preemergence, 16 g ai/ha, scale 0 to 100
[24] = Preemergence, 31 g ai/ha, scale 0 to 100 (0 no effect, 100 complete control)
[25] = Preemergence, 62 g ai/ha, 0 to 100 scale, 0 no effect, 100 complete control

## Cc1cc(-c2ccc(Cl)cc2)nn1-c1c(OC(=O)Oc2ccccc2)cnn(C)c1=O [Compound 54]
[1]; [15]
  Plant response rating, Russian Thistle: 0
[1]; 62 g ai/ha, scale 0 to 100
  Plant response rating, Russian Thistle: 0
[1]; 8 g ai/ha, scale 0 to 100
  Russian Thistle plant response rating: 0
[1]; 16 g ai/ha, scale 0 to 100
  Russian Thistle plant response rating: 0
[2]; [15]
  Plant response rating, Sunflower: 0
[2]; 62 g ai/ha, scale 0 to 100
  Plant response rating, Sunflower: 0
[2]; 8 g ai/ha, scale 0 to 100
  Sunflower plant response rating: 0
[2]; 16 g ai/ha, scale 0 to 100
  Sunflower plant response rating: 0
[3]; postemergence, 0-100 scale
  Bromegrass, Downy plant response rating: 5
[3]; [16]
  Plant response rating, Bromegrass, Downy: 50
[3]; [17]
  Plant response rating, Bromegrass, Downy: 50
[3]; [18]
  Plant response rating, Bromegrass, Downy: 70
[3]; Preemergence, 16 g ai/ha, scale 0 to 100 (0 no effect, 100 complete control)
  Plant response rating, Bromegrass, Downy: 0
[3]; [19]
  Plant response rating, Bromegrass, Downy: 70
[3]; [20]
  Plant response rating, Bromegrass, Downy: 85
[3]; Preemergence, scale 0 to 100
  Bromegrass, Downy plant response rating: 0
[4]; [15]
  Plant response rating, Nightshade, E. B.: 0
[4]; 62 g ai/ha, scale 0 to 100
  Plant response rating, Nightshade, E. B.: 0
[4]; 8 g ai/ha, scale 0 to 100
  Nightshade, E. B. plant response rating: 0
[4]; 16 g ai/ha, scale 0 to 100
  Nightshade, E. B. plant response rating: 0
[5]; [21]
  Foxtail, Giant plant response rating: 85
[5]; [16]
  Plant response rating, Foxtail, Giant: 98
[5]; [17]
  Plant response rating, Foxtail, Giant: 100
[5]; [18]
  Plant response rating, Foxtail, Giant: 100
[5]; [19]
  Plant response rating, Foxtail, Giant: 20
[5]; [20]
  Plant response rating, Foxtail, Giant: 55
[5]; [22]
  Foxtail, Giant plant response rating: 0
[5]; [23]
  Foxtail, Giant plant response rating: 0
[6]; [21]
  Goosegrass plant response rating: 55
[6]; [16]
  Plant response rating, Goosegrass: 65
[6]; [17]
  Plant response rating, Goosegrass: 70
[6]; [18]
  Plant response rating, Goosegrass: 98
[6]; [19]
  Plant response rating, Goosegrass: 0
[6]; [20]
  Plant response rating, Goosegrass: 0
[6]; [22]
  Goosegrass plant response rating: 0
[6]; [23]
  Goosegrass plant response rating: 0
[7]; [21]
  Morningglory plant response rating: 0
[7]; [16]
  Plant response rating, Morningglory: 0
[7]; [17]
  Plant response rating, Morningglory: 0
[7]; [18]
  Plant response rating, Morningglory: 0
[7]; [24]
  Plant response rating, Morningglory: 0
[7]; [20]
  Plant response rating, Morningglory: 0
[7]; [22]
  Morningglory plant response rating: 0
[7]; [23]
  Morningglory plant response rating: 0
[8]; [21]
  Soybean plant response rating: 0
[8]; [16]
  Plant response rating, Soybean: 0
[8]; [17]
  Plant response rating, Soybean: 0
[8]; [18]
  Plant response rating, Soybean: 0
[8]; [24]
  Plant response rating, Soybean: 0
[8]; [20]
  Plant response rating, Soybean: 0
[8]; [22]
  Soybean plant response rating: 0
[8]; [23]
  Soybean plant response rating: 0
[9]; [21]
  Surinam Grass plant response rating: 50
[9]; [16]
  Plant response rating, Surinam Grass: 95
[9]; [17]
  Plant response rating, Surinam Grass: 98
[9]; [18]
  Plant response rating, Surinam Grass: 100
[9]; [24]
  Plant response rating, Surinam Grass: 55
[9]; [25]
  Plant response rating, Surinam Grass: 85
[9]; [22]
  Surinam Grass plant response rating: 0
[9]; [23]
  Surinam Grass plant response rating: 0
[10]; [21]
  Wheat plant response rating: 0
[10]; [16]
  Plant response rating, Wheat: 30
[10]; [17]
  Plant response rating, Wheat: 60
[10]; [18]
  Plant response rating, Wheat: 60
[10]; [24]
  Plant response rating, Wheat: 10
[10]; [25]
  Plant response rating, Wheat: 50
[10]; [23]
  Wheat plant response rating: 0
[11]; 62 g ai/ha
  Plant response rating, Barnyardgrass: 20
[11]; 250 g ai/ha
  Plant response rating, Barnyardgrass: 80
[12]; 62 g ai/ha
  Plant response rating, Ducksalad: 0
[12]; 250 g ai/ha
  Plant response rating, Ducksalad: 0
[13]; 62 g ai/ha
  Plant response rating, Rice: 15
[13]; 250 g ai/ha
  Plant response rating, Rice: 80
[14]; 62 g ai/ha
  Plant response rating, Sedge, Umbrella: 0
[14]; 250 g ai/ha
  Plant response rating, Sedge, Umbrella: 0

From patent US20100267561A1, “HERBICIDAL PYRIDAZINONE DERIVATIVES” (priority 2007, published 2010)
